Patent US11173124B2, “Oral delivery of GLP-1 peptide analogs” (MEDIMMUNE LIMITED, priority 2017, dated 2021)

Legend:
[1] = Canine site of absorption study, IntelliCap, SEQ ID NO:3 solution formulations (Example 10); assay type: in vivo, Beagle dogs; details: for bioavailability: Beagle, plasma; for bioavailability / AUC(0-t) / Cmax / Tmax: dog, pH 8, canine; for F: canine; for AUC(0-t) / Cmax / Tmax: in vivo
Source text: The IntelliCap® system, an electronic oral drug delivery and monitoring device, was used to determine regional absorption for solution formulations. In the form of a capsule, the IntelliCap® incorporates a microprocessor, battery, pH sensor, temperature sensor, radio frequency (RF) wireless transceiver, fluid pump, and drug reservoir. The IntelliCap® system can determine the drug's position in the gastrointestinal (GI) tract by a pH monitoring sensor in the capsule, thereby eliminating the need for in vivo imaging. This system was employed to assess the site of absorption of GLP-1 peptide analogs in the GI tract following oral delivery to canines (Beagle dogs). Solution formulations without permeation enhancer excipients were used as intravenous (IV) and subcutaneous (SC) controls in the study. In brief, solution formulations were prepared and transferred to the IntelliCap® capsule which was dosed to canines, wherein the formulation was released at a specific site in the GI tract.

[2] = Caco-2 permeability assay, permeability coefficient Papp (Examples 1 and 2); assay type: in vitro ADME, human
Source text: The Caco-2 cell line is a continuous cell line of heterogeneous human epithelial colorectal adenocarcinoma cells, which when cultured under specific conditions, become differentiated and polarized such that their phenotype, morphologically and functionally, resembles the enterocytes lining the small intestine. Caco-2 cells express tight junctions, microvilli, and a number of enzymes and transporters that are characteristic of such enterocytes. Caco-2 cells are most commonly used as a tight junction monolayer that provides a physical and biochemical barrier to the passage of drugs and thus serves as an in vitro model of the human small intestinal mucosa to predict the absorption of orally administered drugs. Caco-2 permeability assays were performed by Cyprotex US, LLC (MA, USA) to assess the efficacy of different permeation enhancers. Caco-2 cells were grown on Transwell filters until a transepithelial electric resistance of ˜1000 ohms/cm^2 was achieved. The cells were incubated for three hours with media containing test samples on the apical (top) side of the cell layer, and with blank media on the basolateral (lower) side of the cell layer. Media from the apical and basolateral sides was collected separately after three hours and evaluated for the amount of peptide present on each side. Table 2 gives the permeability coefficient (Papp) of the various test samples, which include the SEQ ID NO:3 GLP-1 peptide in the presence of different excipients.
The apparent permeability coefficients (Papp) of all polypeptides were calculated using the following equation: Papp=dQ/dt×1/A C0
Where dQ/dt is the amount of solutes transported across the Caco-2 barrier in time dt, C0 is the solute concentration in the apical compartment at time zero, and A is the cross-sectional area of the epithelium in contact with apical solution.
The next Caco-2 study was performed to evaluate the ability of additional excipients to enhance the permeability of the SEQ ID NO:3 peptide across tight junction cell layers.

[3] = po, 0.74 mg/kg, PO IntelliCap capsule-proximal small bowel, 8 mg/mL peptide, 10 mg/mL Na CDC, 2 mg/mL Sodium Caprate, PBS pH 8.0
[4] = po, 0.74 mg/kg, PO IntelliCap proximal colon, 8 mg/mL peptide, 10 mg/mL Na CDC, 2 mg/mL Sodium Caprate, PBS pH 8.0
[5] = po, 0.74 mg/kg, PO gavage, 8 mg/mL peptide, 10 mg/mL Na CDC, 2 mg/mL Sodium Caprate, PBS pH 8.0
[6] = iv, 0.01 mg/kg, 0.1 mg/mL peptide in PBS pH 8.0
[7] = sc, 0.01 mg/kg, 0.1 mg/mL peptide in PBS pH 8.0

Structure (SMILES): CC[C@H](C)[C@H](NC(=O)C(C)(Cc1ccccc1)NC(=O)[C@H](CCC(=O)O)NC(=O)[C@H](CCCCNC(=O)COCCOCCNC(=O)COCCOCCNC(=O)CC[C@H](NC(=O)CCCCCCCCCCCCCCCCC(=O)O)C(=O)O)NC(=O)[C@H](C)NC(=O)[C@H](C)NC(=O)[C@H](CCC(=O)O)NC(=O)CNC(=O)[C@H](CCC(=O)O)NC(=O)[C@H](CC(C)C)NC(=O)C(C)(Cc1ccccc1)NC(=O)[C@H](CO)NC(=O)C(C)(CO)NC(=O)[C@@H](NC(=O)[C@H](CC(=O)O)NC(=O)[C@H](CO)NC(=O)[C@@H](NC(=O)C(C)(Cc1ccccc1)NC(=O)[C@H](CO)NC(=O)CNC(=O)[C@H](CCC(=O)O)NC(=O)C(C)(C)NC(=O)[C@@H](N)Cc1c[nH]cn1)[C@@H](C)O)C(C)C)C(=O)N[C@@H](C)C(=O)NC(C)(Cc1ccccc1)C(=O)N[C@H](C(=O)N[C@H](C(=O)NC(C)(CCCCN)C(=O)NCC(=O)NCC(N)=O)C(C)C)C(C)C (stereo partly drawn) [SEQ ID NO: 3, Free-H-[AIB]-EGS-[αMePhe]-TSDV-[αMeSer]-S-[αMePhe]-LEGEAAK[(PEG2)2-γE-Stearate]-E-[αMePhe]-IA-[αMePhe]-VV-[αMeLys]-GG-amide]
- bioavailability [1, 3]: 1.14%
- bioavailability [1, 4]: 3.95%
- bioavailability [1, 5]: 0.19%
- F ([1]; IV, 0.01 mg/kg, 0.1 mg/mL peptide in PBS pH 8.0): 100%
- F ([1]; SC, 0.01 mg/kg, 0.1 mg/mL peptide in PBS pH 8.0): 105.84%
- AUC(0-t) [1, 6]: 1650 ng·h/mL
- Cmax [1, 6]: 140 ng/mL
- Tmax [1, 6]: 30 min
- AUC(0-t) [1, 3]: 1390 ng·h/mL
- Cmax [1, 3]: 60.7 ng/mL
- Tmax [1, 3]: 30 min
- AUC(0-t) [1, 4]: 4840 ng·h/mL
- Cmax [1, 4]: 386 ng/mL
- AUC(0-t) [1, 5]: 228 ng·h/mL
- Cmax [1, 5]: 7.1 ng/mL
- Tmax [1, 5]: 240 min
- AUC(0-t) [1, 7]: 1750 ng·h/mL
- Cmax [1, 7]: 45.1 ng/mL
- Papp A→B ([2]; Caco-2, Example 1, 0.05 mg/mL peptide, ⅛ Lauroglycol FCC:Kolliphor EL:Transcutol HP 5:4:3 (w/w)): 0.09 ×10⁻⁶ cm/s
- Papp A→B ([2]; Caco-2, Example 1, 0.1 mg/mL peptide, 0.5 mg/mL Tetradecylmaltoside): 0.05 ×10⁻⁶ cm/s
- Papp A→B ([2]; Caco-2, Example 1, 0.1 mg/mL peptide, 2.5 mg/mL Tetradecylmaltoside): 0.88 ×10⁻⁶ cm/s
- Papp A→B ([2]; Caco-2, Example 1, 0.1 mg/mL peptide, 5.0 mg/mL Sodium Chenodeoxycholate): 6.2 ×10⁻⁶ cm/s
- Papp A→B ([2]; Caco-2, Example 1, 0.1 mg/mL peptide, 10.0 mg/mL Sodium Decanoate): 0.4 ×10⁻⁶ cm/s
- Papp A→B ([2]; Caco-2, Example 1, 0.1 mg/mL peptide, 12.5 mg/mL Tetradecylmaltoside): 7.8 ×10⁻⁶ cm/s
- Papp A→B ([2]; Caco-2, Example 1, 0.1 mg/mL peptide, 25.0 mg/mL Sodium Chenodeoxycholate): 10.3 ×10⁻⁶ cm/s
- Papp A→B ([2]; Caco-2, Example 1, 0.1 mg/mL peptide, ¼ Lauroglycol FCC:Kolliphor EL:Transcutol HP 5:4:3 (w/w)): 0.05 ×10⁻⁶ cm/s
- Papp A→B ([2]; Caco-2, Example 2, 0.1 mg/mL peptide, 12.5 mg/mL Dodecylmaltoside): 6.4 ×10⁻⁶ cm/s
- Papp A→B ([2]; Caco-2, Example 2, 0.1 mg/mL peptide, 12.5 mg/mL Tetradecylmaltoside): 1.4 ×10⁻⁶ cm/s
- Papp A→B ([2]; Caco-2, Example 2, 0.1 mg/mL peptide, 25.0 mg/mL Sodium Chenodeoxycholate, 12.5 mg/mL Propyl gallate): 43.1 ×10⁻⁶ cm/s
